Measured values from patent US4495179A, “A51568 Antibiotic and process for producing thereof” (Eli Lilly and Company, priority 1983, dated 1985).

Tests used:
[1] = tested on: Haemophilus influenzae; assay: Agar-dilution MIC, variety of bacteria (Table 8); assay type: cell-based
Description: (§1) The activity of antibiotic A51568 against a variety of bacteria, as determined by the agar-dilution method, is reported in Table 8, which follows, wherein the minimum inhibitory concentration (MIC) values are recorded.

[2] = tested on: Haemophilus parainfluenzae; assay: Agar-dilution MIC, variety of bacteria (Table 8); assay type: cell-based
Description: as §1

[3] = tested on: Staphylococcus aureus; assay: Agar-dilution MIC, variety of bacteria (Table 8); assay type: cell-based
Description: as §1

[4] = tested on: Staphylococcus epidermidis; assay: Agar-dilution MIC, variety of bacteria (Table 8); assay type: cell-based
Description: as §1

[5] = tested on: Streptococcus pneumoniae; assay: Agar-dilution MIC, variety of bacteria (Table 8); assay type: cell-based
Description: as §1

[6] = tested on: Streptococcus pyogenes; assay: Agar-dilution MIC, variety of bacteria (Table 8); assay type: cell-based
Description: as §1

[7] = tested on: Streptococcus sp. Group B; assay: Agar-dilution MIC, variety of bacteria (Table 8); assay type: cell-based
Description: as §1

[8] = tested on: Streptococcus sp. Group D; assay: Agar-dilution MIC, variety of bacteria (Table 8); assay type: cell-based
Description: as §1

[9] = tested on: Escherichia coli; assay: Standard agar-dilution assay, aerobic bacteria (Table 9); assay type: cell-based
Description: (§2) The in vitro activity of antibiotic A51568 against a number of aerobic bacteria has been determined using a standard agar-dilution assay. The results, determined by reading the end point after 24 hours, are recorded in Table 9, which follows.

[10] = tested on: Haemophilus influenzae; assay: as above; assay type: cell-based
Description: as §2

[11] = tested on: Klebsiella pneumoniae; assay: as above; assay type: cell-based
Description: as §2

[12] = tested on: Staphylococcus aureus; assay: as above; assay type: cell-based
Description: as §2

[13] = tested on: Staphylococcus epidermidis; assay: as above; assay type: cell-based
Description: as §2

[14] = tested on: Streptococcus pneumoniae; assay: as above; assay type: cell-based; conditions: Streptococcus pneumoniae Park I, end point after 24 hours
Description: as §2

[15] = tested on: Streptococcus pyogenes; assay: as above; assay type: cell-based; conditions: Streptococcus pyogenes C203, end point after 24 hours
Description: as §2

[16] = tested on: Streptococcus sp. Group D; assay: as above; assay type: cell-based
Description: as §2

[17] = tested on: Clostridium difficile; assay: Agar-dilution MIC, anaerobic bacteria (Table 10); assay type: cell-based; conditions: Clostridium difficile 2994
Source text: (§3) Antibiotic A51568 has been tested and found to be active against a number of anaerobic bacteria, as recorded in Table 10, which follows, the MIC values having been determined by the agar-dilution method.

[18] = tested on: Clostridium septicum; assay: Agar-dilution MIC, anaerobic bacteria (Table 10); assay type: cell-based; conditions: Clostridium septicum 1128
Source text: as §3

[19] = tested on: Clostridium perfringens; assay type: cell-based; conditions: Clostridium perfringens 81; Table 10
[20] = tested on: Eubacterium aerofaciens; assay: Agar-dilution MIC, anaerobic bacteria (Table 10); assay type: cell-based; conditions: Eubacterium aerofaciens 1235
[21] = tested on: Peptococcus asaccharolyticus; assay: Agar-dilution MIC, anaerobic bacteria (Table 10); assay type: cell-based; conditions: Peptococcus asaccharolyticus 1302
[22] = tested on: Peptococcus prevoti; assay: Agar-dilution MIC, anaerobic bacteria (Table 10); assay type: cell-based; conditions: Peptococcus prevoti 1281
[23] = tested on: Peptostreptococcus anaerobius; assay: Agar-dilution MIC, anaerobic bacteria (Table 10); assay type: cell-based; conditions: Peptostreptococcus anaerobius 1428
[24] = tested on: Peptostreptococcus intermedius; assay: Agar-dilution MIC, anaerobic bacteria (Table 10); assay type: cell-based; conditions: Peptostreptococcus intermedius 1264
[25] = tested on: Propionibacterium acnes; assay: Agar-dilution MIC, anaerobic bacteria (Table 10); assay type: cell-based; conditions: Propionibacterium acnes 79
[26] = tested on: Bacteroides fragilis; assay: Agar-dilution MIC, anaerobic bacteria (Table 10); assay type: cell-based
[27] = tested on: Bacteroides thetaiotaomicron; assay: Agar-dilution MIC, anaerobic bacteria (Table 10); assay type: cell-based; conditions: Bacteroides thetaiotaomicron 1438
[28] = tested on: Bacteroides melaninogenicus; assay: Agar-dilution MIC, anaerobic bacteria (Table 10); assay type: cell-based
[29] = tested on: Bacteroides vulgatis; assay: Agar-dilution MIC, anaerobic bacteria (Table 10); assay type: cell-based; conditions: Bacteroides vulgatis 1211
[30] = tested on: Bacteroides corrodens; assay: Agar-dilution MIC, anaerobic bacteria (Table 10); assay type: cell-based; conditions: Bacteroides corrodens 1874
[31] = tested on: Fusobacterium symbiosum; assay: Agar-dilution MIC, anaerobic bacteria (Table 10); assay type: cell-based; conditions: Fusobacterium symbiosum 1470
[32] = tested on: Fusobacterium necrophorum; assay: Agar-dilution MIC, anaerobic bacteria (Table 10); assay type: cell-based; conditions: Fusobacterium necrophorum 6054A
[33] = tested on: Clostridium difficile; assay: Agar-dilution MIC, Clostridium difficile strains (Table 11); assay type: cell-based
Source text: Antibiotic A51568 is also active against a number of strains of Clostridium difficile, as determined by the agar-dilution method.

[34] = tested on: Staph. aureus 3055; assay: In vivo protection against experimental bacterial infection; conditions: mice, Staph. aureus 3055 infection, two doses subcutaneously
Description: (§4) Antibiotic A51568 has shown in vivo antimicrobial activity against experimental bacterial infections. When two doses of test compound were administered subcutaneously to mice in illustrative infections, the activity observed is measured as an ED50 [effective dose in mg/kg to protect fifty percent of the test animals: See Warren Wick et al., J. Bacteriol. 81, 233-235 (1961)]. The ED50 values observed for antibiotic A51568 are as follows: […]

[35] = tested on: Strep. pneumoniae Park I; assay: as above; conditions: mice, two doses subcutaneously
Description: as §4

[36] = tested on: Strep. pyogenes C203; assay: as above; conditions: mice, two doses subcutaneously
Description: as §4

CC(C)C[C@@H](N)C(=O)N[C@@H]1C(=O)N[C@@H](CC(N)=O)C(=O)N[C@H]2C(=O)N[C@H]3C(=O)N[C@H](C(=O)N[C@H](C(=O)O)c4cc(O)cc(O)c4-c4cc3ccc4O)[C@H](O)c3ccc(c(Cl)c3)Oc3cc2cc(c3O[C@@H]2O[C@H](CO)[C@@H](O)[C@H](O)[C@H]2O[C@H]2C[C@](C)(N)C(O)[C@H](C)O2)Oc2ccc(cc2Cl)[C@H]1O (some centres unmarked) [A51568, demethylvancomycin]
16 µg/mL: MIC [21] | MIC ([28]; Bacteroides melaninogenicus 2736)
3.03 mg/kg × 2: ED50 (effective dose to protect fifty percent of the test animals) [36]
64 µg/mL: MIC ([1]; Haemophilus influenzae 76) | MIC ([1]; Haemophilus influenzae Bond) | MIC ([1]; Haemophilus influenzae Mx371) | MIC ([2]; Haemophilus parainfluenzae 7901) | MIC ([2]; Haemophilus parainfluenzae 9796) | MIC ([10]; Haemophilus influenzae (sensitive) Holt, end point after 24 hours)
0.5 µg/mL: MIC ([3]; Staphylococcus aureus 3055) | MIC ([5]; Streptococcus pneumoniae Bl-438) | MIC ([6]; Streptococcus pyogenes ATCC 10389) | MIC ([6]; Streptococcus pyogenes C203) | MIC ([7]; Streptococcus sp. Group B 14) | MIC [14]
32 µg/mL: MIC ([1]; Haemophilus influenzae 4842) | MIC ([1]; Haemophilus influenzae C.L.) | MIC ([1]; Haemophilus influenzae Mx366) | MIC [22] | MIC ([26]; Bacteroides fragilis 111) | MIC ([26]; Bacteroides fragilis 1877) | MIC ([26]; Bacteroides fragilis 1936B) | MIC [27] | MIC [29] | MIC [30]
0.125 µg/mL: MIC ([5]; Streptococcus pneumoniae Park I)
1.79 mg/kg × 2: ED50 (effective dose to protect fifty percent of the test animals) [34]
2 µg/mL: MIC ([4]; Staphylococcus epidermidis 269) | MIC ([4]; Staphylococcus epidermidis 270) | MIC ([4]; Staphylococcus epidermidis 285) | MIC ([8]; Streptococcus sp. Group D 2041) | MIC ([8]; Streptococcus sp. Group D 9901) | MIC ([12]; Staphylococcus aureus X400, end point after 24 hours) | MIC ([13]; Staphylococcus epidermidis EPI1, end point after 24 hours) | MIC [17] | MIC [20] | MIC [31] | MIC [32] | MIC ([33]; Clostridium difficile 78) | MIC ([33]; Clostridium difficile 107B) | MIC ([33]; Clostridium difficile 111F) | MIC ([33]; Clostridium difficile 1153) | MIC ([33]; Clostridium difficile 2634) | MIC ([33]; Clostridium difficile 3424-5B) | MIC ([33]; Clostridium difficile 3816) | MIC ([33]; Clostridium difficile 3950D) | MIC ([33]; Clostridium difficile 6890) | MIC ([33]; Clostridium difficile 8484) | MIC ([33]; Clostridium difficile A-194) | MIC ([33]; Clostridium difficile A-195) | MIC ([33]; Clostridium difficile A-196) | MIC ([33]; Clostridium difficile A-279) | MIC ([33]; Clostridium difficile A-280) | MIC ([33]; Clostridium difficile A-281) | MIC ([33]; Clostridium difficile WAL-2112) | MIC ([33]; Clostridium difficile WAL-3657) | MIC ([33]; Clostridium difficile WAL-4268)
2.71 mg/kg × 2: ED50 (effective dose to protect fifty percent of the test animals) [35]
> 128 µg/mL: MIC ([9]; Escherichia coli EC14, end point after 24 hours) | MIC ([9]; Escherichia coli N10, end point after 24 hours) | MIC ([11]; Klebsiella pneumoniae KAE, end point after 24 hours) | MIC ([11]; Klebsiella pneumoniae X26, end point after 24 hours) | MIC ([28]; Bacteroides melaninogenicus 1856/28)
128 µg/mL: MIC ([1]; Haemophilus influenzae 312) | MIC ([1]; Haemophilus influenzae 16836) | MIC ([9]; Escherichia coli TEM, end point after 24 hours) | MIC ([10]; Haemophilus influenzae (resistant) R252, end point after 24 hours)
4 µg/mL: MIC ([7]; Streptococcus sp. Group B 5) | MIC ([8]; Streptococcus sp. Group D 2058) | MIC ([8]; Streptococcus sp. Group D 9960) | MIC ([16]; Streptococcus sp. Group D 9960, end point after 24 hours)
1 µg/mL: MIC ([3]; Staphylococcus aureus V102) | MIC ([3]; Staphylococcus aureus V138) | MIC ([3]; Staphylococcus aureus V140) | MIC ([3]; Staphylococcus aureus X400) | MIC ([4]; Staphylococcus epidermidis 219) | MIC ([4]; Staphylococcus epidermidis 222) | MIC ([8]; Streptococcus sp. Group D 8043) | MIC ([8]; Streptococcus sp. Group D 12253F) | MIC ([8]; Streptococcus sp. Group D Mx161) | MIC ([8]; Streptococcus sp. Group D X66) | MIC ([12]; Staphylococcus aureus 3055, end point after 24 hours) | MIC ([12]; Staphylococcus aureus S13E, end point after 24 hours) | MIC ([12]; Staphylococcus aureus V41, end point after 24 hours) | MIC ([13]; Staphylococcus epidermidis EPI2, end point after 24 hours) | MIC [15] | MIC ([16]; Streptococcus sp. Group D X66, end point after 24 hours) | MIC [18] | MIC [19] | MIC [23] | MIC [24] | MIC [25]
